Laboratory results taken from US20250345283A1, “MACROPHAGE-DERIVED ENGINEERED VESICLES FOR TARGETED DELIVERY AND TREATMENT” (University of Kentucky Research Foundation, priority 2020, published 2025).
Blank lines part the entries; values can stand above or below the molecule they belong to.

Key:
[1] = system: A549 xenograft; assay: In vivo targeting of DiR-labeled cell-derived vesicles, IVIS imaging; parameters: species or system mouse; details: tail vein injection, imaging 24 h postinjection
Procedure: Athymic nude mice were injected with A549 cells (NSCLC, immortalized) in the right shoulder and monitored for 3-4 weeks until measurable xenograft tumors were observed. RAW cells were cultured in vitro by standard methods. Cell-derived vesicles were manufactured by the Richards lab as described above and loaded with DiR near-infrared fluorescent dye. Prepared vesicles were administered, and mice were then imaged approximately 24, 48, and 72 hours later. Mice were anesthetized for imaging using isoflurane. Epifluorescence was measured using an IVIS Spectrum In vivo Imaging System (PerkinElmer). Vesicles were labeled with DiR near-infrared fluorescent dye, which was excited at 710 nm, with emission measured at 780 nm. Fluorescent signal intensity (i.e., total radiant efficiency) within regions of interest (ROI) were quantified using Living Image software (PerkinElmer), correcting for background fluorescence using distal site ROI within the same mouse.
RAW264.7 cells (100 million) were scraped in 40 mL of sucrose buffer solution with protease inhibitor. Vesicles were prepared as described above. The cells were labeled using DiR at 2 μM for 30 min at 37° C. Samples were injected intravenously to the mouse, through the tail vein. Approximately 1×10^11 vesicles were delivered per injection. All animal experiments were repeated three times. […]

[2] = system: A549 xenograft; assay: In vivo delivery of DiR-labeled M1EVs to tumor xenografts, IVIS imaging; parameters: species or system mouse; details: 2×10^10 vesicles, tail vein, imaging 48 and 72 h post injection
Procedure: A549 cells (1×10^6) were injected subcutaneously into the interscapular region of 6-week-old athymic nude mice. The mice were monitored until palpable xenograft tumors developed greater than 200 mm3. M1EVs were generated using 100 million M1 macrophages by the procedure mentioned above. A NanoSight 300 multiple particle tracking system was used to determine the mean diameter and the concentration of MEVs. M1EVs were then labeled with the DiR near-infrared fluorescent dye. Briefly, 1 μL of 1 mM DiR was added to 199 μL of the vesicle resuspension so that the final concentration of DiR in the vesicle resuspension was 5 µM. DiR-labeled vesicles were separated from free DiR using a size exclusion PD MidiTrap column equilibrated with PBS. 100 μL of DiR-labeled M1EVs was then injected into the lateral tail vein of tumor-bearing mice. Isoflurane gas was used to anesthetize mice for imaging 72 h post injection using an IVIS Spectrum In vivo Imaging System (PerkinElmer) controlled with LivingImage software (PerkinElmer). Epifluorescence images were obtained using 710 nm excitation and 760 nm emission filters, f/stop number 4 and binning factor 4, with a 35 s exposure.
The free dye was separated from MEVs using PD Miniprep columns. […] After the tumor xenograft reached at least 100 mm3, 2×10^10 vesicles were injected through the tail vein of each of the three different mice. […]

[3] = system: M2 macrophages; assay: Uptake of M1EVs by M2 macrophages in the presence of dynasore; assay type: cell-based, mouse; details: Dynasore 80 μM
Procedure: Dynamin activity is an integral component of both endocytosis and phagocytosis. Dynasore, a dynamin inhibitor, has been widely used to study the process of internalization of exosomes from the surface of the macrophage. […] The uptake of fluorescently labeled M1EVs by M2 BMDMs was compared in the presence and absence of dynasore. Dynasore (80 μM) was added to cultured macrophages 20 min prior to the addition of labeled vesicles. M2 macrophages were left to incubate with M1EVs for 2 h and subsequently imaged by wide-field microscopy. […] The integrated density of the fluorescence signal was calculated to compare the uptake of M1EVs by M2 macrophages. […] Similar vesicle uptake control experiments were performed in the presence of the vehicle, DMSO, at an equal concentration. There was no significant effect of DMSO on the M1EV uptake process by M2 macrophages relative to the control with no DMSO or dynasore. Macrophages are well-established phagocytotic cells.

[4] = system: A549 cells; assay: A549 cell viability (alamar blue) after cisplatin-loaded A549 vesicles or free cisplatin; assay type: cell-based, human; details: cisplatin 3 μg
Procedure: A549 cells (60 million) were used to generate vesicles for delivery. Cells were scraped from culture in 20 mL of sucrose buffer containing protease inhibitor. The cell solution was collected in a 50 mL conical tube and pelleted at 2000 rpm at 25° C. for 2 min. The solution was aspirated off, and the pellet was resuspended in 8 mL of 8.33 mM cisplatin in sucrose buffer solution or 20 mg cisplatin/8 mL sucrose buffer solution plus protease inhibitor. The cell solution was fragmented using N2 cavitation at 300 psi at 4° C. for 5 min. The resulting cell slurry was centrifuged at 4000 g for 10 min at 4° C. The supernatant from centrifugation was transferred to a 25 mL ultracentrifuge tube for 10,000 g centrifugation for 20 min at 4° C. The supernatant from the UCF tube was then transferred to a new 25 mL ultracentrifuge tube and centrifuged at 100,000 g for 60 min at 4° C. The pellet in the UCF tube was washed with 500 μL of sucrose solution, and the residual solution was pipetted out and discarded. Seven hundred fifty microliters of sucrose buffer solution was added to the UCF tube, and the pellet was resuspended via pipetting. Empty vesicles were generated in the exact same way except in the absence of cisplatin. A549 cells (30,000) were plated in each well of a 96-well plate and allowed to seed for 24 h. During that time, the growth media was exchanged for 250 μL of fresh HEK media containing either cisplatin in solution (4.17 mM), cisplatin-loaded vesicles, empty vesicles, or untreated media cisplatin solution in HEK media. The media was aspirated off. Two hundred microliters of Optimem was added followed by 20 μL of alamar blue. […] The plate was read using a FlexStation plate reader. […] Cell viability was determined using a fluorescence assay (alamar blue), where the fluorescence intensity scales with the population of live cells. […] Vesicles were then added to A549 cells in culture, and the cell proliferation was compared to cells alone and those in the presence of free cisplatin in solution at the same levels (3 μg) as were measured in the vesicle solution. […]

localisation of DiR fluorescence in tumor-bearing mice [1]: nonspecific accumulation | localisation of DiR fluorescence in tumor-bearing mice [2]: nonspecific accumulation
Structure (SMILES): CCCCCCCCCCCCCCCCCCN1/C(=C/C=C/C=C/C=C/C2=[N+](CCCCCCCCCCCCCCCCCC)c3ccccc3C2(C)C)C(C)(C)c2ccccc21.[I-] [DiR]

Structure (SMILES): O=C(N/N=C/c1ccc(O)c(O)c1)c1cc2ccccc2cc1O [Dynasore]
effect on cell viability of macrophages [3]: no effect on the cell viability | reduction in uptake of vesicles relative to the control ([3]; M1EVs with M2 macrophages 2 h): 64%

Structure (SMILES): N.N.[Cl][Pt][Cl] [free cisplatin, cisplatin]
A549 cell death ([4]; 24 h): no apparent cell death | A549 cell death ([4]; 48 h): 15% | A549 cell death ([4]; 72 h): 50%
